From US11753418B2, “Compounds for the modulation of Myc activity” (Syros Pharmaceuticals, Inc., priority 2015, dated 2023) come the findings set out here.

The target in test [1] is T1, c-Myc/Max/Ebox DNA (Homo sapiens, UniProt P01106).
T1 construct: his6 (cleaved yes)
Put plainly: c-Myc/Max/Ebox DNA AlphaScreen Assay. The test is classed as binding. The following applies: free c-Myc 20 nM, his6-Max 5 nM, biotinylated Ebox oligo 10 nM, 2 hour incubation. Summed up:
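Tag-free c-Myc (20 nM final) and biotinylated Ebox DNA (10 nM final) met compound first, then his6-Max was added; 2 h incubation in pH 8.0 HEPES buffer (150 mM NaCl, BSA, Tween20, glycogen, DTT), DMSO ≤2%. Ternary complex read as AlphaScreen signal between Ni-chelate acceptor and streptavidin donor beads.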

Test [2] relates to human small lung cancer cell line H2171. Put plainly: Cell Viability Assay (ATPlite). The test is classed as cell-based. The conditions noted are these: NCI-H2171, 72 h, H2171 cells, incubated for three days, ATPlite readout. The method, then: Compounds of the invention were assayed for cell viability using the human small lung cancer cell line H2171 as described in the following protocol. Cells were counted and adjusted to 20,000 cells/mL. Using a Biotek EL406, 50 μL of cells in media were distributed into 384 well white plates from Thermo. Immediately after plating, compound in DMSO was distributed to plates. Compounds were added to plates using a 50 nL 384 well pin transfer manifold on a Janus workstation. Stocks were arrayed in 10 point dose response in DMSO stock in 384 well Greiner compound plates. After the addition of compounds, plates were incubated for three days in a 37° C. incubator. Cell viability was read out using ATPlite from Perkin Elmer. Lyophilized powder was resuspended in lysis buffer and diluted 1:2 with deionized water. 25 μL of this solution was added to each well using the Biotek liquid handler. Plates were incubated for 15 minutes at room temperature before signal was read on an Envision Plate Reader. The data from this assay are summarized in Table 3 below (H2171 activity).
For orientation: In ATP-based viability assays light output follows the ATP content of the culture.

For orientation: pIC50 means the negative decadic logarithm of the IC50, by convention in mol/L. Higher therefore signals a small IC50.

pIC50: −log10 of the molar value. Counter-ions that a name gives are not always drawn.

T1 sequence (P01106 whole entry): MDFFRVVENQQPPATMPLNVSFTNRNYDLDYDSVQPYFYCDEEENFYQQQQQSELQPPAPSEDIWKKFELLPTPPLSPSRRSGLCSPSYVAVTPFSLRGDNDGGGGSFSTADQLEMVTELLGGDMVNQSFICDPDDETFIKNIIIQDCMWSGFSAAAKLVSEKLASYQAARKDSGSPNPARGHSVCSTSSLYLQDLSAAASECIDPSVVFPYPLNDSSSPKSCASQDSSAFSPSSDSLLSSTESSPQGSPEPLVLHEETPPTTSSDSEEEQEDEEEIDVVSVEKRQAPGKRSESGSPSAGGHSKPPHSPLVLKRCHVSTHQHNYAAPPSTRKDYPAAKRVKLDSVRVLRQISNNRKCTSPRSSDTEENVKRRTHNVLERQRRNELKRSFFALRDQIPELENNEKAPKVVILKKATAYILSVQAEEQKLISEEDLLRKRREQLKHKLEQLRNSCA

Consider `CN(C)CCC(=O)Nc1sc2c(c1-c1nc3cnccc3s1)CCNC2` [Compound 219, 3-(dimethylamino)-N-(3-(thiazolo[4,5-c]pyridin-2-yl)-4,5,6,7-tetrahydrothieno[2,3-c]pyridin-2-yl)propanamide], for which the pIC50 in test [1] and in test [2] was above 6.30 in each case.

Take `CC(C)NCCC(=O)Nc1sc2c(c1-c1nc3ncccc3s1)CCNC2` [Compound 220, 3-(isopropylamino)-N-(3-(thiazolo[4,5-b]pyridin-2-yl)-4,5,6,7-tetrahydrothieno[2,3-c]pyridin-2-yl)propanamide dihydrochloride]: the pIC50 in test [1] and in test [2] was above 6.30 each time.

As for `O=C(CCNC1CNC1)Nc1sc2c(c1-c1nc3cnccc3s1)CCNC2` [Compound 223, 3-(Azetidin-3-ylamino)-N-(3-(thiazolo[4,5-c]pyridin-2-yl)-4,5,6,7-tetrahydrothieno[2,3-c]pyridin-2-yl)propanamide], the pIC50 in test [1] and in test [2] was above 6.30 in each case.

`CNCCC(=O)Nc1sc2c(c1-c1nc3cnccc3s1)CCNC2` [Compound 224, 3-(Methylamino)-N-(3-(thiazolo[4,5-c]pyridin-2-yl)-4,5,6,7-tetrahydrothieno[2,3-c]pyridin-2-yl)propanamide]: the results for the pIC50 in test [1] and in test [2] were above 6.30 and 5.30 to 6.30, respectively.

Take `Cc1cc2sc(-c3c(NC(=O)CCNC(C)C)sc4c3CCNC4)nc2c(C)n1` [Compound 225, N-(3-(4,6-Dimethylthiazolo[4,5-c]pyridin-2-yl)-4,5,6,7-tetrahydrothieno[2,3-c]pyridin-2-yl)-3-(isopropylamino)propanamide dihydrochloride]: the negative logarithm of the IC50 (pIC50) in test [1] and in test [2] was above 6.30 throughout.

As for `CC[C@H](C)NCCC(=O)Nc1sc2c(c1-c1nc3c(C(F)F)nccc3s1)CCNC2` [Compound 226], the pIC50 in test [1] and in test [2] was above 6.30 throughout.

In the case of `COCCNCCC(=O)Nc1sc2c(c1-c1nc3c(C)nc(C)cc3s1)CCNC2` [Compound 227, N-(3-(4,6-Dimethylthiazolo[4,5-c]pyridin-2-yl)-4,5,6,7-tetrahydrothieno[2,3-c]pyridin-2-yl)-3-((2-methoxyethyl)amino)propanamide dihydrochloride], the pIC50 in test [1] and in test [2] was above 6.30 in each case.

For `CC(=O)Nc1sc2c(c1-c1nc3c(C)nc(C)cc3s1)CCNC2` [Compound 228, N-(3-(4,6-dimethylthiazolo[4,5-c]pyridin-2-yl)-4,5,6,7-tetrahydrothieno[2,3-c]pyridin-2-yl)acetamide hydrochloride], the negative-log IC50 (pIC50) in test [1] and in test [2] was above 6.30 each time.

`CCN1Cc2sc(NC(C)=O)c(-c3nc4cnccc4s3)c2C[C@H]1C` [Compound 230, (R)—N-(6-ethyl-5-methyl-3-(thiazolo[4,5-c]pyridin-2-yl)-4,5,6,7-tetrahydrothieno[2,3-c]pyridin-2-yl)acetamide]: the pIC50 in test [1] is 5.30 to 6.30; in test [2] it was above 6.30.

In the case of `CCN1Cc2sc(NC(C)=O)c(-c3nc4cnccc4s3)c2C[C@@H]1C` [Compound 231, (S)—N-(6-ethyl-5-methyl-3-(thiazolo[4,5-c]pyridin-2-yl)-4,5,6,7-tetrahydrothieno[2,3-c]pyridin-2-yl)acetamide], the negative logarithm of the IC50 (pIC50) in test [1] is 5.30 to 6.30; in test [2], above 6.30.

For the compound `CCN1CCc2c(sc(NC(C)=O)c2-c2nc3cnccc3s2)[C@@H]1C` [Compound 232, (S)—N-(6-ethyl-7-methyl-3-(thiazolo[4,5-c]pyridin-2-yl)-4,5,6,7-tetrahydrothieno[2,3-c]pyridin-2-yl)acetamide], the pIC50 in test [1] and in test [2] was above 6.30 throughout.

For `CC[C@H](C)N(CCC(=O)Nc1sc2c(c1-c1nc3cnccc3s1)CCNC2)Cc1ccccc1` [Compound 233, (S)-3-(Benzyl(sec-butyl)amino)-N-(3-(thiazolo[4,5-c]pyridin-2-yl)-4,5,6,7-tetrahydrothieno[2,3-c]pyridin-2-yl)propanamide hydrochloride], the negative-log IC50 (pIC50) in test [1] is 4.60 to 5.30; in test [2] it was 5.30 to 6.30.

As to `CC[C@H](C)NCCC(=O)Nc1sc2c(c1-c1nc3cnccc3s1)CCN[C@H]2C` [Compound 234, 3-(((S)-sec-butyl)amino)-N—((S)-7-methyl-3-(thiazolo[4,5-c]pyridin-2-yl)-4,5,6,7-tetrahydrothieno[2,3-c]pyridin-2-yl)propanamide], the negative-log IC50 (pIC50) in test [1] and in test [2] was above 6.30 in each case.

For the compound `CC(=O)Nc1sc2c(c1-c1nc3cnccc3s1)C[C@@H](C)N[C@H]2C` [Compound 237], the negative logarithm of the IC50 (pIC50) in test [1] and in test [2] was 5.30 to 6.30 throughout.

With `CC[C@H](C)NCCC(=O)Nc1sc2c(c1-c1nc3cnccc3s1)CCN(CC)C2` [Compound 238, (S)-3-(sec-butylamino)-N-(6-ethyl-3-(thiazolo[4,5-c]pyridin-2-yl)-4,5,6,7-tetrahydrothieno[2,3-c]pyridin-2-yl)propanamide], the pIC50 in test [1] and in test [2] was above 6.30 each time.

In the case of `CC[C@H](C)NCCC(=O)Nc1sc2c(c1-c1nc3cnccc3s1)CCN(C(C)C)C2` [Compound 239, (S)-3-(sec-butylamino)-N-(6-isopropyl-3-(thiazolo[4,5-c]pyridin-2-yl)-4,5,6,7-tetrahydrothieno[2,3-c]pyridin-2-yl)propanamide], the pIC50 in test [1] and in test [2] was above 6.30 throughout.

Regarding `COCCNCCC(=O)Nc1sc2c(c1-c1nc3cnc(Cl)cc3s1)CCNC2` [Compound 243], the pIC50 in test [1] and in test [2] was above 6.30 in each case.

`COCCNCCC(=O)Nc1sc2c(c1-c1nc3cnc(C)cc3s1)CCNC2` [Compound 244]: the pIC50 in test [1] and in test [2] was above 6.30 in each case.

`COCCNCCC(=O)Nc1sc2c(c1-c1nc3c(C(F)F)nc(C)cc3s1)CCNC2` [Compound 245]: the negative-log IC50 (pIC50) in test [1] and in test [2] was above 6.30 throughout.

Consider `C[C@@H]1NCCc2c1sc(NC(=O)CCN[C@@H]1C[C@H]3CNC[C@H]3C1)c2-c1nc2cnccc2s1` [Compound 246, N—((S)-7-methyl-3-(thiazolo[4,5-c]pyridin-2-yl)-4,5,6,7-tetrahydrothieno[2,3-c]pyridin-2-yl)-3-(((3aR,5s,6aS)-octahydrocyclopenta[c]pyrrol-5-yl)amino)propanamide], for which the pIC50 was 5.30 to 6.30 in test [1] and above 6.30 in test [2].

Turning to `C[C@H]1Cc2c(sc(NC(=O)CCN[C@@H]3C[C@H]4CNC[C@H]4C3)c2-c2nc3cnccc3s2)CN1` [Compound 247, N—((S)-5-methyl-3-(thiazolo[4,5-c]pyridin-2-yl)-4,5,6,7-tetrahydrothieno[2,3-c]pyridin-2-yl)-3-(((3aR,5s,6aS)-octahydrocyclopenta[c]pyrrol-5-yl)amino)propanamide], the negative logarithm of the IC50 (pIC50) in test [1] is 4.60 to 5.30; in test [2], above 6.30.

Turning to `C[15NH]CCC(=O)Nc1sc2c(c1-c1nc3cnccc3s1)CCNC2` [Compound 248, 3-(Methylamino)-N-(3-(thiazolo[4,5-c]pyridin-2-yl)-4,5,6,7-tetrahydrothieno[2,3-c]pyridin-2-yl)propanamide], the pIC50 in test [1] and in test [2] was above 6.30 throughout.

As for `C[C@H]1NCCc2c1sc(NC(=O)CCN[C@@H]1C[C@H]3CNC[C@H]3C1)c2-c1nc2cnccc2s1` [Compound 249, N—((R)-7-methyl-3-(thiazolo[4,5-c]pyridin-2-yl)-4,5,6,7-tetrahydrothieno[2,3-c]pyridin-2-yl)-3-(((3aR,5s,6aS)-octahydrocyclopenta[c]pyrrol-5-yl)amino)propanamide], the negative-log IC50 (pIC50) in test [1] and in test [2] was above 6.30 each time.

As to `C[C@@H]1Cc2c(sc(NC(=O)CCN[C@@H]3C[C@H]4CNC[C@H]4C3)c2-c2nc3cnccc3s2)CN1` [Compound 250, N—((R)-5-methyl-3-(thiazolo[4,5-c]pyridin-2-yl)-4,5,6,7-tetrahydrothieno[2,3-c]pyridin-2-yl)-3-(((3aR,5s,6aS)-octahydrocyclopenta[c]pyrrol-5-yl)amino)propanamide], the results for the pIC50 in test [1] and in test [2] were 5.30 to 6.30 and above 6.30, respectively.

`CCC(C)NCCC(=O)[15NH]c1sc2c(c1-c1nc3cnccc3s1)CCNC2` (centres unmarked) [Compound 251, 3-(sec-Butylamino)-N-(3-(thiazolo[4,5-c]pyridin-2-yl)-4,5,6,7-tetrahydrothieno[2,3-c]pyridin-2-yl)propan-^15N-amide]: the pIC50 in test [1] and in test [2] was above 6.30 throughout.
